Source: patent US5244886A, “11β-phenyl-14βH steroids” (Schering Aktiengesellschaft, priority 1988, dated 1993)

What was measured:
[1] = system: Antiglucocorticoid effectiveness; assay: Antiglucocorticoid effectiveness in % of RU 486; details: RU 486 effectiveness = 100%
From the text: Antiglucocorticoid effectiveness of compounds A to G;
the effectiveness is indicated in % of th

[2] = system: mammary gland (tubulo-alveolar gland end pieces); assay: Antiproliferative potency of progesterone antagonists on the mammary gland, bioassay in ovariectomized rats (whole mount, inguinal mammary gland); assay type: in vivo, rat; details: 3 days, estrone 10 micrograms + progesterone 3 mg, antagonist 1 mg/animal/day, relative to G = 100%
Description: The antiproliterative potency of progesterone antagonists on the mammary gland was determined in a bioassay. For this purpose, ovariectomized rats were substituted for 3 days with estrone (10 micrograms) and progesterone (3 mg) and another group at the same time was treated with the following progesterone antagonists (1 mg/animal/day):
The entire inguinal mammary gland was dissected by performance of the "whole mount" technique (Lyons and Johnson, 1952). Of six animals, the number of tubulo-alveolar gland end pieces is determined by 40 times magnification.
The antiproliterative potency is expressed in percent of the inhibition of the tubulo-alveolar end pieces corresponding to the following formula:
(estrone (E)+progesterone (P))-(E+P+G)=100% of treated animals
(E+P)-(test compound H or I)=X%

Compound: COc1ccc2c(c1)C[C@]13CCC(=O)C=C1CC[C@@H]1[C@@H]3[C@@H]2C[C@@]2(C)[C@@H]1CC[C@]2(O)CCCO [C, 17-hydroxy-17beta-(3-hydroxypropyl)-11beta,19-(4-methoxy-o-phenylene)-14beta-androst-4-en-3-one]
- Antiglucocorticoid effectiveness (in % of RU 486) [1]: 0%

Compound: C[C@]12C[C@@H]3c4ccc(-c5cccnc5)cc4C[C@]45CCC(=O)C=C4CC[C@H]([C@H]35)[C@H]1CC[C@]2(O)CCCO [D, 17-hydroxy-17beta-(3-hydroxypropyl)-11beta,19-(4-(3-pyridyl)-o-phenylene]-14beta-androst-4-en-3-one]
- Antiglucocorticoid effectiveness (in % of RU 486) [1]: 0%

Compound: C=Cc1ccc2c(c1)C[C@]13CCC(=O)C=C1CC[C@@H]1[C@@H]3[C@@H]2C[C@@]2(C)[C@@H]1CC[C@]2(O)CCCO [E, 17-hydroxy-17beta-(3-hydroxypropyl)-11beta,19-(4-vinyl-o-phenylene)-14beta-androst-4-en-3-one]
- Antiglucocorticoid effectiveness (in % of RU 486) [1]: 1%

Compound: C#CC[C@@]1(O)CC[C@@H]2[C@@H]3CCC4=CC(=O)CCC4=C3[C@@H](c3ccc(C(C)=O)cc3)C[C@@]21C [B, 11beta-(4-acetylphenyl)-17alpha-hydroxy-17-(prop-2-inyl)-14beta-estra-4,9-dien-3-one]
- Antiglucocorticoid effectiveness (in % of RU 486) [1]: 1%

Compound: CN(C)c1ccc([C@H]2C[C@@]3(C)[C@H](CC[C@]3(O)CCCO)[C@@H]3CCC4=CC(=O)CCC4=C32)cc1 [F, 11beta-(4-dimethylaminophenyl)-17alpha-hydroxy-17-(3-hydroxypropyl)-14beta-estra-4,9-dien-3-one, reference compound]
- Antiglucocorticoid effectiveness (in % of RU 486) [1]: 2%

Compound: CC#C[C@]1(O)CC[C@H]2[C@@H]3CCC4=CC(=O)CCC4=C3[C@@H](c3ccc(C(C)=O)cc3)C[C@@]21C [G, 11beta-(4-acetylphenyl)-17beta-hydroxy-17alpha-(1-propinyl)-4,9-estradien-3-one]
- % inhibition of the tubulo-alveolar end pieces [2]: 100%

Compound: CN(C)c1ccc([C@H]2C[C@@]3(C)[C@H](CC[C@]34CCCO4)[C@@H]3CCC4=CC(=O)CCC4=C32)cc1 [I, 11beta-(4-dimethylaminophenyl)-4,5-dihydro-spiro[14beta-estra-4,9-diene-17alpha,2'(3'H)-furan]-3-one]
- % inhibition of the tubulo-alveolar end pieces [2]: 13%

Compound: C[C@]12C[C@H](c3ccc(-c4cccnc4)cc3)C3=C4CCC(=O)C=C4CC[C@H]3[C@H]1CC[C@]2(O)CCCO [H, 11beta-[4-(3-pyridyl)phenyl]-17alpha-hydroxy-17-(3-hydroxypropyl)-14beta-estra-4,9-dien-3-one]
- % inhibition of the tubulo-alveolar end pieces [2]: 92%

Compound: CC#C[C@@]1(O)CC[C@@H]2[C@@H]3CCC4=CC(=O)CCC4=C3[C@@H](c3ccc(C(C)=O)cc3)C[C@@]21C [A, 11beta-(4-acetylphenyl)-17alpha-hydroxy-17-(prop-1-inyl)-14beta-estra-4,9-dien-3-one]
- Antiglucocorticoid effectiveness (in % of RU 486) [1]: 1%
